From patent US11345700B2, “Methods of preparing inhibitors of influenza viruses replication” (priority 2013, dated 2022)
Like-named read-outs stand apart in the source and are kept apart here.

System: Influenza A/Victoria/3/75 (H3N2) virus
Type: in vivo, BALB/c mice
[1] = 1 mg/kg p.o. twice a day for 10 days starting 2 hours prior to virus exposure
[2] = 3 mg/kg p.o. twice a day for 10 days starting 2 hours prior to virus exposure
[3] = 10 mg/kg p.o. twice a day for 10 days starting 2 hours prior to virus exposure

Q: `O=C(O)[C@H]1[C@H]2CC[C@H](CC2)[C@@H]1Nc1nc(-c2c[nH]c3ncc(F)cc23)ncc1F` [Compound (1)] was tested. Which “MDD ± SD (mean day of death of mice that died on or before day 21)” value [1] did it give?
A: 9.8

Q: What about the “Mean Lung Parameters (Day 6): Score (hemorrhage score 0-4)” value (shortened to “Mean Lung Parameters (Day 6): Score”) [1] of the same compound?
A: 3.2

Q: And the “Mean Lung Parameters (Day 6): Virus Titer” value [1]?
A: 7.3 Log10 CCID50/g

Q: What about the “Mean Lung Parameters (Day 6): Weight” value [1] of the same compound?
A: 274 mg

Q: And the Survivors/Total [1]?
A: 4/10

Q: And the “Mean Lung Parameters (Day 6): Score” value [2]?
A: 3.3

Q: What about the “Mean Lung Parameters (Day 6): Virus Titer” value [2] of the same compound?
A: 7.2 Log10 CCID50/g

Q: What about the “Mean Lung Parameters (Day 6): Weight” value [2] of the same compound?
A: 260 mg

Q: And the “Mean Lung Parameters (Day 6): Score” value [3]?
A: 0.1

Q: What about the “Mean Lung Parameters (Day 6): Virus Titer” value [3] of the same compound?
A: 6.1 Log10 CCID50/g

Q: And the “Mean Lung Parameters (Day 6): Weight” value [3]?
A: 164 mg
